Reference: US8815857B2 (Boehringer Ingelheim International GmbH, priority 2011, dated 2014)
In brackets after ≈: the same amount, converted by molar mass.

How the values were obtained:
[1] = molecular target: T1, human soluble guanylate cyclase alpha 1 and beta 1 subunits (sGC) stably expressed in Chinese hamster ovary cells (Homo sapiens, UniProt Q02108+Q02153); test: sGC cellular activator assay: cGMP in CHO cells expressing human sGC, preincubated with ODQ; type: cell-based; details: 40 microM ODQ preincubation, 30 min at room temperature, presence or absence of 50% human serum not given, read-out: EC50 nM, Activity of Compounds in Cellular Assay
T1 construct: expressed in transfected cells; host or cells: Chinese hamster ovary cells, stably transfected
T1 sequence (Q02108 1-690 partner): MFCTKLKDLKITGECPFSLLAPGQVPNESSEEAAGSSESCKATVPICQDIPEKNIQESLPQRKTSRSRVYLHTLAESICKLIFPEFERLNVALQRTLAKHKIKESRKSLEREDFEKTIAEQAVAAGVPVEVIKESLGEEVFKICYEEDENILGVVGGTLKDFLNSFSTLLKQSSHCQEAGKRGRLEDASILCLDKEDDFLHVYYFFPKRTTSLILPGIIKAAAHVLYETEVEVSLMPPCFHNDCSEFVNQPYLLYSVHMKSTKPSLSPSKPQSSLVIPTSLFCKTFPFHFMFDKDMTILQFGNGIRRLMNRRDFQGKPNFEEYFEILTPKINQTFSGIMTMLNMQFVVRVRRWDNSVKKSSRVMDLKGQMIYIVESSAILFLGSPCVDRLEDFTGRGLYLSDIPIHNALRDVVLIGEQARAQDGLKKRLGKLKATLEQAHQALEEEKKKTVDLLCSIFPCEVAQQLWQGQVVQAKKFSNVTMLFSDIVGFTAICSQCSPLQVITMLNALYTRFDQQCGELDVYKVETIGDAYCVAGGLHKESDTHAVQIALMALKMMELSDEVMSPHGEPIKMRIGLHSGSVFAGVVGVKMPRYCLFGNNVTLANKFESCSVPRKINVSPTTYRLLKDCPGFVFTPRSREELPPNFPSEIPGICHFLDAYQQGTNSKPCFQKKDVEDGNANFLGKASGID
T1 sequence (Q02153 1-619): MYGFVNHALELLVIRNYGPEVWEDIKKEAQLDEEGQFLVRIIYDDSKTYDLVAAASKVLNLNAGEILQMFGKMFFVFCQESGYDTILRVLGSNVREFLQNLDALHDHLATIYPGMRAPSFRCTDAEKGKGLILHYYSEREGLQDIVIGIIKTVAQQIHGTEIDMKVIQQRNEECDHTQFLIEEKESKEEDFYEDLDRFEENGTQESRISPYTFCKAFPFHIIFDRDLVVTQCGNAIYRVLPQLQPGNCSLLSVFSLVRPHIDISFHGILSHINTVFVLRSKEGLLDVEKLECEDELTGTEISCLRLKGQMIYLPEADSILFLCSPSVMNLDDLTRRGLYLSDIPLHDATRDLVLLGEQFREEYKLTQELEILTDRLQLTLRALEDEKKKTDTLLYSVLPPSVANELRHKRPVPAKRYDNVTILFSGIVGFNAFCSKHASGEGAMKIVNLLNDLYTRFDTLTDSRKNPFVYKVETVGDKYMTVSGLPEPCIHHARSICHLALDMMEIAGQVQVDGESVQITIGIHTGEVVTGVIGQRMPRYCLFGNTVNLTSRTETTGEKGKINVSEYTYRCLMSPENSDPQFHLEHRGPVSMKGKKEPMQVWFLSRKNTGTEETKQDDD
Procedure: The sGC cellular activator assay is performed in the presence and absence of 50% human serum (HS) using Chinese hamster ovary cells that have been stably transfected to express the human soluble guanylate cyclase alpha 1 and beta 1 subunits (sGC). Cells are preincubated with 40 microM 1H-[1,2,4]oxadiazolo[4,3-a]quinoxalin-1-one (ODQ), an sGC inhibitor, for one hour in buffer containing 0.1% bovine serum albumin and 3-isobutyl-1-methylxanthine (IBMX). Concentration response curves are prepared for test compounds in DMSO. An intermediate dilution of the compounds is performed in either buffer containing IBMX or type AB HS containing IBMX. Diluted compounds are added to cells and they are incubated at room temperature for thirty minutes. cGMP is measured using a CisBio homogeneous time resolved fluorescence kit and the EC50 is calculated for each compound.

[2] = Assessment of solubility: HT solubility in pION buffer, UV spectrophotometry; details: kinetic from dmso stock
[3] = pH 6.8, aqueous buffer, Solubility (pH 6.8), pH 6.8
[4] = pION system solution buffer, pH 4.5, pH 4.5, aqueous buffer, Solubility (pH 4.5), pH 4.5 buffer, 16-19 h incubation, 1.0% DMSO
[5] = pION system solution buffer, pH 7.4, pH 7.4, aqueous buffer, Solubility (pH 7.4), pH 7.4 buffer, 16-19 h incubation, 1.0% DMSO

Row | Compound | EC50 [1] | solubility [2, 3] | solubility [2, 4] | solubility [2, 5]
1 | Cc1ccc(OCc2ccc(C(=O)N3CCCCC3)cc2C)c(-c2nc(N3C[C@H]4CC[C@@H](C3)[C@H]4C(=O)O)sc2F)c1 [Compound 202, 3-[5-fluoro-4-[5-methyl-2-[[2-methyl-4-(piperidine-1-carbonyl)phenyl]methoxy]phenyl]thiazol-2-yl]-3-azabicyclo[3.2.1]octane-8(syn)-carboxylic acid] | 310 nM | 91 µg/mL (≈ 158 µM) | 97 µg/mL (≈ 168 µM) | > 59 µg/mL
2 | COCC1CN(Cc2ccc(COc3ccc(C)cc3-c3csc(N4C[C@H]5CC[C@@H](C4)[C@H]5C(=O)O)n3)c(C#N)c2)CCO1 (stereo partly shown) [Compound 212] | 100 nM | 32 µg/mL (≈ 53.1 µM) | 11 µg/mL (≈ 18.2 µM) | 
3 | Cc1ccc(OCc2ccc(C(=O)N3CCCCC3)cc2C)c(-c2csc(N3C[C@H]4CC[C@@H](C3)[C@@]4(O)C(=O)O)n2)c1 [Compound 216, 8-hydroxy-3-(4-{5-methyl-2-[2-methyl-4-(piperidine-1-carbonyl)-benzyloxy]-phenyl}-thiazol-2-yl)-3-aza-bicyclo[3.2.1]octane-8(syn)-carboxylic acid] | 390 nM | 0.17 µg/mL (≈ 0.295 µM) | < 0.1 µg/mL | 
4 | Cc1ccc(OCc2ccc(CN3CCOCC3)cc2C)c(-c2csc(N3CC[C@]4(C(=O)O)C[C@@H]4C3)n2)c1 [Compound 220] | 42 nM | 4.8 µg/mL (≈ 8.99 µM) | 42 µg/mL (≈ 78.7 µM) | 4 µg/mL (≈ 7.49 µM)
5 | Cc1ccc(OCc2ccc(C(=O)N3CCCCC3)cc2C)c(-c2csc(N3C[C@H]4CC[C@@H](C3)[C@@]4(F)C(=O)O)n2)c1 [Compound 221, 8-fluoro-3-(4-{5-methyl-2-[2-methyl-4-(piperidine-1-carbonyl)-benzyloxy]-phenyl}-thiazol-2-yl)-3-aza-bicyclo[3.2.1]octane-8(syn)-carboxylic acid] | 75 nM | 0.45 µg/mL (≈ 0.779 µM) | < 0.1 µg/mL | 
6 | Cc1ccc(OCc2ccc(CN3CCS(=O)(=O)CC3)cc2C)c(-c2csc(N3CC[C@]4(C(=O)O)C[C@@H]4C3)n2)c1 [Compound 222] | 110 nM | 3.3 µg/mL (≈ 5.67 µM) | < 0.1 µg/mL | 30 µg/mL (≈ 51.6 µM)
7 | Cc1ccc(OCc2ccc(CN3CCS(=O)(=O)CC3)cc2C)c(-c2csc(N3CC[C@@]4(C(=O)O)C[C@H]4C3)n2)c1 [Compound 223] | 5.2 nM | 2.5 µg/mL (≈ 4.3 µM) | < 0.1 µg/mL | 
8 | Cc1ccc(OCc2ccc(C(=O)N3CCOCC3)cc2C)c(-c2csc(N3CC[C@@]4(C(=O)O)C[C@H]4C3)n2)c1 [Compound 224] | 5.8 nM | 54 µg/mL (≈ 98.6 µM) | < 0.1 µg/mL | 
9 | Cc1ccc(OCc2ccc(CN3CCN(C(=O)C4CC4)CC3)cc2C)c(-c2csc(N3CC[C@@]4(C(=O)O)C[C@H]4C3)n2)c1 [Compound 225] | 7.3 nM | 0.3 µg/mL (≈ 0.499 µM) | 4.6 µg/mL (≈ 7.66 µM) | 
10 | Cc1ccc(OCc2ccc(C(=O)N3CCCCC3)cc2C)c(-c2csc(N3CC[C@@]4(C(=O)O)C[C@H]4C3)n2)c1 [Compound 226] | 13 nM | 15 µg/mL (≈ 27.5 µM) | < 0.1 µg/mL | 
11 | Cc1ccc(OCc2ccc(CN3CCOC(CO)C3)cc2C#N)c(-c2csc(N3C[C@H]4CC[C@@H](C3)[C@H]4C(=O)O)n2)c1 (stereo partly shown) [Compound 227] | 99 nM | 62 µg/mL (≈ 105 µM) | 54 µg/mL (≈ 91.7 µM) | 
12 | Cc1ccc(OCc2ccc(CN3CCN(C(=O)C4CC4)CC3)cc2C)c(-c2csc(N3C[C@H]4CC[C@@H](C3)[C@H]4C(=O)O)n2)c1 [Compound 228] | 39 nM | 0.42 µg/mL (≈ 0.683 µM) | 6.1 µg/mL (≈ 9.92 µM) | 
13 | Cc1ccc(OCc2ccc(C(=O)N3CCCCC3)cc2C)c(-c2csc(N3CCCC(C)(C(=O)O)CC3)n2)c1 (stereo not shown) [Compound 229] | 76 nM | 21 µg/mL (≈ 37.4 µM) | 0.4 µg/mL (≈ 0.712 µM) | 
14 | Cc1ccc(OCc2ccc(CN3CCS(=O)(=O)CC3)cc2C)c(-c2csc(N3CCCC(C)(C(=O)O)CC3)n2)c1 (stereo not shown) [Compound 230] | 120 nM | 0.95 µg/mL (≈ 1.59 µM) | < 0.1 µg/mL | 
15 | Cc1ccc(OCc2ccc(CN3C[C@@H]4C[C@H]3CO4)cc2C#N)c(-c2csc(N3C[C@H]4CC[C@@H](C3)[C@H]4C(=O)O)n2)c1 [Compound 232] | 44 nM | 26 µg/mL (≈ 45.6 µM) | 46 µg/mL (≈ 80.6 µM) | > 54 µg/mL
16 | Cc1ccc(OCc2ccc(CN3CCOCC3)cc2C)c(-c2csc(N3CCCC(C)(C(=O)O)CC3)n2)c1 (stereo not shown) [Compound 233] | 310 nM | 0.6 µg/mL (≈ 1.09 µM) | 47 µg/mL (≈ 85.5 µM) | 
17 | Cc1ccc(OCc2ccc(CN3CCOC(C)C3)cc2C#N)c(-c2csc(N3C[C@H]4CC[C@@H](C3)[C@H]4C(=O)O)n2)c1 (stereo partly shown) [Compound 238] | 39 nM | 5.2 µg/mL (≈ 9.08 µM) | 4.9 µg/mL (≈ 8.56 µM) | 
18 | Cc1ccc(OCc2ccc(C(=O)N3CCOCC3)cc2C)c(-c2csc(N3CC[C@@H](C(=O)O)[C@H]3C)n2)c1 [Compound 241] | 41 nM | 72 µg/mL (≈ 134 µM) | 9.2 µg/mL (≈ 17.2 µM) | 
19 | Cc1ccc(OCc2ccc(CN3CCOCC3)cc2C)c(-c2csc(N3CC[C@@H](C(=O)O)[C@H]3C)n2)c1 [Compound 242] | 90 nM | 37 µg/mL (≈ 70.9 µM) | 53 µg/mL (≈ 102 µM) | 
20 | Cc1ccc(OCc2ccc(C(=O)N3CCCCC3)cc2C)c(-c2csc(N3C[C@@H]4[C@H](C3)[C@@H]4C(=O)O)n2)c1 [Compound 243] | 180 nM | 61 µg/mL (≈ 115 µM) | 1.2 µg/mL (≈ 2.26 µM) | 
21 | Cc1ccc(OCc2ccc(CN3CCS(=O)(=O)CC3)cc2C)c(-c2csc(N3C[C@@H]4[C@H](C3)[C@@H]4C(=O)O)n2)c1 [Compound 244] | 180 nM | 65 µg/mL (≈ 114 µM) | 2.6 µg/mL (≈ 4.58 µM) | 
22 | Cc1ccc(OCc2ccc(CN3CCS(=O)(=O)CC3)cc2C)c(-c2csc(N3CC[C@@H](C(=O)O)[C@H]3C)n2)c1 [Compound 245] | 290 nM | 48 µg/mL (≈ 84.2 µM) | 3.6 µg/mL (≈ 6.32 µM) | 
23 | Cc1ccc(OCc2ccc(CN3CCOCC3)cc2C)c(-c2csc(N3C[C@@H]4[C@H](C3)[C@@H]4C(=O)O)n2)c1 [Compound 246] | 340 nM | 54 µg/mL (≈ 104 µM) | 62 µg/mL (≈ 119 µM) | 
24 | Cc1ccc(OCc2ccc(C(=O)N3CCOCC3)cc2C)c(-c2csc(N3C[C@@H]4[C@H](C3)[C@@H]4C(=O)O)n2)c1 [Compound 247] | 720 nM | 70 µg/mL (≈ 131 µM) | 46 µg/mL (≈ 86.2 µM) | 
25 | Cc1ccc(OCc2ccc(C(=O)N3CCCCC3)cc2C)c(-c2csc(N3CC4(CC4C(=O)O)C3)n2)c1 (stereo not shown) [Compound 248] | 110 nM | 47 µg/mL (≈ 88.4 µM) | < 0.1 µg/mL | 
26 | Cc1ccc(OCc2ccc(CN3CCN(C(=O)C4CC4)CC3)cc2C)c(-c2csc(N3CC(CC(=O)O)C3)n2)c1 [Compound 249] | 140 nM | 51 µg/mL (≈ 88.7 µM) | 45 µg/mL (≈ 78.3 µM) | 
27 | CC[C@]1(C(=O)O)[C@@H]2CC[C@H]1CN(c1nc(-c3cc(C)ccc3OCc3ccc(C(=O)N4CCCCC4)cc3C)cs1)C2 [Compound 250, 8-ethyl-3-(4-{5-methyl-2-[2-methyl-4-(piperidine-1-carbonyl)-benzyloxy]-phenyl}-thiazole-2-yl)-3-aza-bicyclo[3.2.1]octane-8(syn)-carboxylic acid] | 140 nM | 13 µg/mL (≈ 22.1 µM) | < 0.1 µg/mL | 
28 | Cc1ccc(OCc2ccc(C(=O)N3CCCCC3)cc2C)c(-c2csc(N3CC(CC(=O)O)C3)n2)c1 [Compound 251] | 240 nM | 56 µg/mL (≈ 108 µM) | 0.15 µg/mL (≈ 0.289 µM) | 
